# Read-outs that look alike come from different tables or passages of the source. Where a SMILES comes first, the peptide text is derived from it.
# Experiments:
# rat apelin receptor-EGFP [1] = molecular target: T1, rat apelin receptor-EGFP (Rattus norvegicus, UniProt Q9JHG3); assay: Apelin receptor-EGFP internalization, confocal microscopy; type: cell-based
# T1 construct: expressed in transfected cells
# T1 sequence (Q9JHG3 1-377): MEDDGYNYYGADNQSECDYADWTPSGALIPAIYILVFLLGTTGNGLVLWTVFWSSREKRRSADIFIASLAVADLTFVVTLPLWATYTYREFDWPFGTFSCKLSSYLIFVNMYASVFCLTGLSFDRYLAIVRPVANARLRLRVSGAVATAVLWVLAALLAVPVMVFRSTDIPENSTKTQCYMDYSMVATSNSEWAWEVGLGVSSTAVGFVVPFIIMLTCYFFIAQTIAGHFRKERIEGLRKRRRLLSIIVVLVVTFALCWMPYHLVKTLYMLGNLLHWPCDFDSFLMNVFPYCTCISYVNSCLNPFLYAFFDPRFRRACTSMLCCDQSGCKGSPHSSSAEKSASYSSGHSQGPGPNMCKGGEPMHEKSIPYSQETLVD
# Procedure: The internalization assay was performed as described previously with CHO cells stably expressing the rat apelin receptor-EGFP (43). […] Cells were then mounted in Aquapolymount (Polysciences, Warrington, Pa., USA) for confocal microscopic analysis (Sec (42) for details).
# rat apelin receptor-EGFP [2] = molecular target: T1, rat apelin receptor-EGFP; assay: ERK1/2 phosphorylation (Alphascreen); type: cell-based
# Description: ERK1/2 phosphorylation was then monitored by Alphascreen technology.
# [3] = system: rat aortic rings precontracted by noradrenaline (NA); assay: Isometric tension of aortic rings precontracted by noradrenaline
# Procedure: The experiments were performed in rat aortic rings as previously described (39). […] The aortas were cleaned of excess connective tissue and fat and cut into rings of approximately 3-4 mm in length. Special care was taken to avoid damaging the luminal surface of the endothelium. […] One end of the aortic ring was connected to a tissue holder and the other to an isometric force transducer (EMKA Technologies, Paris, France). […] During equilibration period, the rings were washed every 30 min. Then, a first relaxation to acetylcholine (Ach, 10^−4 mol/L) was implemented to check the integrity or the absence of the endothelium in rings precontracted with NA (3×10^−8 mol/L). After rinsing with PSS to baseline tension, rings were equilibrated for 90 min. […] Each concentration of the drug was added at the maximal effect of the precedent concentration. The concentration-response curves were continuously recorded on a PC by means of IOX v 2.4 (EMKA Technologies, Paris) for further analysis (Datanalyst v2.1, EMKA Technologies, Paris).
# [4] = system: rat glomerular arterioles precontracted by Angiotensin II (AngII); assay: Diameter of glomerular arterioles precontracted by angiotensin II
# Procedure: The left kidney of male rats was prepared for microdissection of arterioles as previously described (44). Glomerular arterioles were isolated under stereomicroscopic observation. The afferent and muscular efferent arterioles were isolated with the glomerulus and identify according their morphology and localization in the inner renal cortex as previously described by Helou et al. […] For these experiments afferent and muscular efferent arterioles were microdissected attached to the gomeruli. […] Arteriolar diameters were measured with Adobe Photoshop CS. Diameters were measured on a distance equal to about 100 μm upstream of the glomerulus and triplicate were performed for each arteriole. Calibration was made using a stage micrometer. The average diameter for each experimental condition was used for statistical analysis.
# [5] = system: water-deprived or euhydrated mice; assay: Plasma AVP after i.c.v. injection (RIA); type: in vivo, mouse
# Procedure: Animals were killed 1 min after the injection, and trunk blood (0.5-1 ml) was collected in chilled tubes containing 50 μl of 0.3 M EDTA pH 7.4. […] RIA kit (Peninsula Laboratories International Inc, San Carlo, USA).
# rat apelin receptor-EGFP [6] = molecular target: T1, rat apelin receptor-EGFP; assay: Inhibition of forskolin-induced cAMP production (HTRF); type: cell-based
# Procedure: cAMP was quantified using the cAMP dynamic 2 assay kit (Cisbio Bioassays, Codolet, France) based on homogeneous time-resolved fluorescence (HTRF) technology. The stimulation was done in the stimulation buffer (HBSS, 5 mM Hepes, 0.1% BSA stabilizer, 1 mM IBMX, pH 7.4). Briefly, 2,000/well CHO cells stably expressing the rat apelin receptor-EGFP were added into 384-well plate and stimulated with 10^−6 M forskolin (FSK) and increasing concentrations (10^−14 to 10^−4 M) of apelins or its analogs for 30 min at room temperature. Cells were then lyzed, and cAMP levels were determined following manufacturer instructions.
# [7] = Stability in mouse plasma at 37° C.
# Procedure: For each compound, the stock solution (100 μM in water) was diluted in plasma to a final incubation concentration of 5 μM. The incubation at 37° C. was stopped respectively at to and 4 h by adding one volume of ice cold acetonitrile containing 0.1% trifluoroacetic acid. The sample was vortexed for 1 min and then centrifuged at 4° C. before LC-MS injection of the supernatant. Analyses were performed on a Kinetex RP-C18 column (2.6 μm, 100 Å, 50×4.6 mm) using a linear gradient (solvent B in solvent A, solvent A: water/0.05% TFA; solvent B: acetonitrile; flow rate of 2 mL·min^−1: detection at 358 nm). The percentage of remaining test compound relative to t0 was measured by monitoring the peak area of the chromatogram.
# [8] = system: anaesthesized normotensive Wistar rats; assay: Arterial blood pressure after i.v. injection; type: in vivo, rat
# Procedure: The resulting solution was administered to the rats via a catheter inserted into the right femoral vein, and was immediately followed by 0.2 ml Krebs buffer alone to flush the venous catheter. An additional catheter was inserted into the right femoral artery, as previously described (47), for the monitoring of mean arterial blood pressure (MBP) as previously described (48). The arterial catheter was connected to a COBE CDX III pressure transducer (Phymep, Paris, France) linked to the Maclab system (Phymep, Paris, France). HR measurement was triggered by the blood pressure signal. BP was continuously recorded throughout the experiment. […] Mean AUC for each group were then calculated. Unpaired Student's t test was used to determine whether BP observed in response to substances administered […].) has statistically significant difference.
# rat apelin receptor-EGFP [9] = molecular target: T1, rat apelin receptor-EGFP; assay: [125I]pE13F radioligand binding on CHO membrane preparations
# Procedure: Crude membrane preparation from CHO stably expressing the wild-type rat apelin receptor-EGFP, were prepared as previously described (39). […] The reaction was stopped by adding ice-cold binding buffer and filtered through glass microfiber filters (Whatman GF/C filters). Radioactivity was counted in Wizard 1470 Wallac gamma counter (Perkin Elmer, Turku, Finland).
# [10] = 15 nmol i.v., listed as JFM V-01961
# [11] = [125I]pE13F binding I (nM), Table 2
# [12] = Table 2, read-out: cAMP production IC50
smiles,measurement,setting,value
CSCC[C@H](NC(=O)[C@@H]1CCCN1C(=O)CNC(=O)[C@H](CCCCN)NC(=O)[C@H](Cc1c[nH]cn1)NC(=O)[C@H](CO)NC(=O)[C@H](CC(C)C)NC(=O)[C@H](CCCNC(=N)N)NC(=O)[C@@H]1CCCN1C(=O)[C@H](CCCNC(=N)N)NC(=O)[C@H](CCC(N)=O)NC(=O)[C@H](CCCNC(=N)N)NC(=O)[C@H](CCCNC(=N)N)NC(=O)[C@H](Cc1ccccc1)NC(=O)[C@H](CCCCN)NC(=O)CCC(F)(F)C(F)(F)C(F)(F)C(F)(F)C(F)(F)C(F)(F)C(F)(F)C(F)(F)F)C(=O)N1CCC[C@H]1C(=O)N[C@@H](Cc1ccccc1)C(=O)O [JFM V-0196B],EC50,rat apelin receptor-EGFP [1],0.41 ± 0.16 nM
same,EC50,rat apelin receptor-EGFP [2],0.89 ± 0.61 nM
same,vasorelaxing effect at maximal concentration,[3]; 100 μM,60±3%
same,arteriolar diameter after application to Ang II-precontracted arterioles,"[4]; 500 nM, 1 nM Ang II, from 12.97±0.50 μm",13.88±0.45 μm
same,vasorelaxant effect in the presence of L-NAME,"[4]; L-NAME, NO synthase inhibitor",not significantly changed
same,effect on plasma AVP levels in euhydrated mice,"[5]; euhydrated mice, supramaximal dose 1 μg i.c.v.",no effect on plasma AVP levels
same,maximal decrease in AVP release,"[5]; water-deprived mice, 0.01 μg i.c.v.",−75%
same,IC50,rat apelin receptor-EGFP [6],3.13 ± 1.43 nM
same,starting peptide remaining after 4 h,"[7]; Table 4, mouse plasma, 37° C.",100% of starting peptide after 4 h
same,half-life at 5 μM,"[7]; mouse, plasma",> 4 h
same,"duration of the hypotensive effect, fold higher than K17F",[8]; 15 nmol i.v.,27 fold
same,"maximal hypotensive response, fold higher than K17F",[8]; 15 nmol i.v.,9 fold
same,BP decrease at the plateau value after 30 min,"[8]; 15 nmol i.v., after 30 min",21 mmHg
same,"duration of the hypotensive effect, fold higher than K17F",[8]; [10],8 fold
same,"maximal hypotensive response, fold higher than K17F",[8]; [10],6.7 fold
same,time of maximal hypotensive response after injection,[8]; 15 nmol/rat i.v.,10 min
same,Maximal decrease in BP (mmHg),"[8]; Table 5, 15 nmol i.v.",−52 mmHg
same,Time For maximal BP decrease,"[8]; Table 5, 15 nmol i.v.",10 min
same,Time to return to a plateau value,"[8]; Table 5, 15 nmol i.v.",33 min
same,plateau value reached (in brackets),"[8]; Table 5, 15 nmol i.v.",−21 mmHg
same,Ki,"rat apelin receptor-EGFP [9]; Binding affinity Ki (nM), Table 7, additional experiments vs Table 2",0.08 ± 0.01 nM
same,Ki,"rat apelin receptor-EGFP [9]; Ki for the apelin receptor (affinity), competition with [125I]pE13F, CHO membranes",0.2 nM
same,Ki,rat apelin receptor-EGFP [9]; [11],0.21 ± 0.27 nM
CCCCCCCCCCCCCCCC(=O)N[C@@H](CCCCN)C(=O)N[C@@H](Cc1ccccc1)C(=O)N[C@@H](CCCNC(=N)N)C(=O)N[C@@H](CCCNC(=N)N)C(=O)N[C@@H](CCC(N)=O)C(=O)N[C@@H](CCCNC(=N)N)C(=O)N1CCC[C@H]1C(=O)N[C@@H](CCCNC(=N)N)C(=O)N[C@@H](CC(C)C)C(=O)N[C@@H](CO)C(=O)N[C@@H](Cc1c[nH]cn1)C(=O)N[C@@H](CCCCN)C(=O)NCC(=O)N1CCC[C@H]1C(=O)N[C@@H](CCSC)C(=O)N1CCC[C@H]1C(=O)N[C@@H](Cc1ccccc1)C(=O)O [JFM V-0196A],IC50,rat apelin receptor-EGFP [6]; [12],3.9 ± 1.5 nM
same,starting peptide remaining after 4 h,"[7]; mouse, plasma",100% of star-ring peptide after 4 h
same,Ki,rat apelin receptor-EGFP [9]; [11],0.76 ± 0.13 nM
"CCCC[C@H](NC(=O)[C@@H]1CCCN1C(=O)[C@@H](C)NC(=O)[C@H](CCCCN)NC(=O)C(C)(C)NC(=O)[C@H](CO)NC(=O)[C@@H](CC(C)C)NC(=O)[C@H](CCCNC(=N)N)NC(=O)[C@@H]1CCCN1C(=O)[C@H](CCCNC(=N)N)NC(C)=O)C(=O)N1CCC[C@H]1C(=O)N[C@@H](Cc1ccc(Br)cc1)C(=O)O [P26, N-Acetyl-Arg-Pro-Arg-DLeu-Ser-Aib-Lys-DAla-Pro-Nle-Pro-(4-Br)Phe-OH] (HELM PEPTIDE1{[ac].R.P.R.[dL].S.[Aib].K.[dA].P.[Nle].P.[O=C(O)[C@H](Cc1ccc(Br)cc1)N[*:1]]}$$$$V2.0)",EC50,"rat apelin receptor-EGFP [1]; 20 min, read-out: EC50 apelin receptor internalization",2.11 ± 1.14 nM
same,ERK1/2 EC50 times higher than K17F,rat apelin receptor-EGFP [2],18 times
same,EC50,"rat apelin receptor-EGFP [2]; 10 min, read-out: EC50 ERK1/2 phosphorylation",71.3 ± 19.1 nM
same,EC50,"rat apelin receptor-EGFP [2]; Table 7, read-out: ERK1/2 phosphorylation EC50",72.1 ± 19.6 nM
same,maximal relaxant effect,[3]; precontraction 3×10^−6 M NA,93±3%
same,potency (pD2) of relaxation,[3]; precontraction 3×10^−6 M NA,6.27±0.42
same,IC50,"rat apelin receptor-EGFP [6]; 10^−6 M forskolin, read-out: IC50 inhibition of forskolin-induced cAMP production",4.4 ± 0.9 nM
same,IC50,rat apelin receptor-EGFP [6]; [12],2.22 ± 1 nM
same,half-life at 5 μM,"[7]; mouse, plasma",1.43 h
same,Ki,rat apelin receptor-EGFP [9]; [11],2.11 ± 0.4 nM

# Reference: patent publication US20210206817A1, “Metabolically Stable Apelin Analogs in the Treatment of Disease Mediated by the Apelin Receptor” (priority 2014, published 2021)
